The target in assay [1] is IMP-1 (Serratia marcescens, UniProt P52699). Kind of assay: biochemical. The class given is biochemical. The conditions noted are these: read-out: IMP-1 IC50.
Assay [2] concerns Serratia marcescens expressing IMP-1 (CL5741). Put plainly: Antibiotic potentiation activity: synergistic concentration (MITC95) with imipenem, OD600 growth. In kind it is cell-based. The conditions noted are these: for Serratia marcescens MITC95: 95% growth inhibition. A digest of the protocol:
(§1)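 CLB30005 was precultured on Mueller Hinton agar with 8 ug/ml imipenem, the other strains on trypticase soy agar with 5% sheep blood, overnight at 35 °C. Saline suspensions diluted 1:100 in 1.1× CAMHB received compound and 4 μg/ml imipenem, then 22–24 h at 35 °C before absorbance reading.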

Assay [3] concerns Escherichia coli expressing NDM-1 (CLB30016). The description is as above. The class given is cell-based. The conditions noted are these: for Escherichia coli MITC95: 95% growth inhibition. The essentials: as §1
For assay [4], the system named is Klebsiella pneumoniae expressing VIM-1 (IHMA599644). The description is as above. To be noted: for Klebsiella pneumoniae MITC95: 95% growth inhibition. The class given is cell-based. The essentials:
as §1

The target of assay [5] is VIM-1 (Pseudomonas aeruginosa (strain ATCC 15692 / DSM 22644 / CIP 104116 / JCM 14847 / LMG 12228 / 1C / PRS 101 / PAO1), UniProt A0A0F7KYQ8). Kind of assay: Enzyme activity: determination of IC50, fluorescence assay with CCF2-FA substrate (VIM-1). In kind it is biochemical. The conditions noted are these: read-out: VIM-1 IC50.
Assay [6] has as its target NDM-1 (Klebsiella pneumoniae, UniProt C7C422). Kind of assay: biochemical. The conditions noted are these: read-out: NDM-1 IC50. In kind it is biochemical.
Where [7] appears, read: IMP-1 enzyme, CCF2-FA fluorescence assay.
The mark [8] stands for this setting: Serratia marcescens expressing IMP-1 (CL5741).
The mark [9] stands for this setting: Escherichia coli expressing NDM-1 (CLB30016).
The mark [10] stands for this setting: Klebsiella pneumoniae expressing VIM-1 (IHMA599644).
[11] abbreviates: VIM-1 enzyme, CCF2-FA fluorescence assay.
Setting [12] is: NDM-1 enzyme, CCF2-FA fluorescence assay.
[13] abbreviates: fluorescence assay with CCF2-FA substrate.
The mark [14] stands for this setting: concentration giving 95% inhibition of bacterial growth.

Molecules are shown by their SMILES. Read-outs that look alike come from different tables or passages of the source.

NDM-1, sequence (C7C422 whole entry, looked up, species assumed): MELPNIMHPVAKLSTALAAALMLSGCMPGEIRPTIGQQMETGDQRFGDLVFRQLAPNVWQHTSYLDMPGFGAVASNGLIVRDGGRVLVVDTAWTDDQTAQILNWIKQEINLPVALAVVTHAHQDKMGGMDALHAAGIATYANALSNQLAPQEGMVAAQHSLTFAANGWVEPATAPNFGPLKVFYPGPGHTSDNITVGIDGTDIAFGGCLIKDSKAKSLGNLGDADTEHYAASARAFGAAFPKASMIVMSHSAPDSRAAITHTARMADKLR
IMP-1, sequence (P52699 whole entry, looked up): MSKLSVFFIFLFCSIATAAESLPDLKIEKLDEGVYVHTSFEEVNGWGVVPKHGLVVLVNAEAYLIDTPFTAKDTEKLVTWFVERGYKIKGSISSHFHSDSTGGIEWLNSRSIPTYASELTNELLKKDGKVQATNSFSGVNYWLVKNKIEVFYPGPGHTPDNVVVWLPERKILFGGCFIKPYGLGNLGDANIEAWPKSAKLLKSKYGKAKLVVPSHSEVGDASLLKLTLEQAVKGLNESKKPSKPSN

Broadly, the IC50 is the concentration that inhibits the measured activity by half. `NC(=O)CNCc1ccc(-c2cccc(S(N)(=O)=O)c2-c2nnn[nH]2)cc1` [Example 340, 2-(((3′-sulfamoyl-2′-(1H-tetrazol-5-yl)-[1,1′-biphenyl]-4-yl)methyl)amino)acetamide]: the IC50 amounted to 90.2 nM in assay [1] (setting [7]), 158 nM in assay [5] (setting [11]) and 5.14 nM in assay [6] (setting [12]). Besides, the “Serratia marcescens MITC95” value in assay [2] (setting [8]) was 1.563 µM. In addition, the “Escherichia coli MITC95” value in assay [3] (setting [9]) turned out to be 0.3906 µM. Besides, the “Klebsiella pneumoniae MITC95” value in assay [4] (setting [10]) amounted to 25 µM.
On to `NS(=O)(=O)c1c(CC2CCN(CC3CNC3)CC2)ccc(-c2ccc(C3CCNCC3)cc2)c1-c1nn[nH]n1` [Example 471, 4-((1-(azetidin-3-ylmethyl)piperidin-4-yl)methyl)-4′-(piperidin-4-yl)-2-(2H-tetrazol-5-yl)-[1,1′-biphenyl]-3-sulfonamide], for which the figures for the IC50 in assay [1] (setting [7]), in assay [5] (setting [11]) and in assay [6] (setting [12]) were 8.68 nM, 2.05 nM and 2.72 nM, respectively. Besides, in assay [2] (setting [8]), the “Serratia marcescens MITC95” value worked out at 1.563 µM. For the same compound, the “Escherichia coli MITC95” value in assay [3] (setting [9]) amounted to 0.7813 µM. The “Klebsiella pneumoniae MITC95” value in assay [4] (setting [10]) came to 1.563 µM.
For the compound `NS(=O)(=O)c1c(C(F)(F)F)ccc(-c2cccn3cncc23)c1-c1nnn[nH]1` [Example 485, 3-(Imidazo[1,5-a]pyridin-8-yl)-2-(1H-tetrazol-5-yl)-6-(trifluoromethyl)benzenesulfonamide], the IC50 in assay [1] (setting [7]) worked out at 4.98 nM; in assay [5] (setting [11]), 0.197 nM; in assay [6] (setting [12]), 1.57 nM. Moreover, the “Serratia marcescens MITC95” value in assay [2] (setting [8]) was determined as 12.5 µM. Further, the “Escherichia coli MITC95” value in assay [3] (setting [9]) came out at 3.125 µM. In addition, the “Klebsiella pneumoniae MITC95” value in assay [4] (setting [10]) came to 6.25 µM.
Turning to `NCCN1CCC(c2ccc(-c3cccc(S(N)(=O)=O)c3-c3nnn[nH]3)cc2)CC1` [Example 616, 3-[4-[1-(2-aminoethyl)-4-piperidyl]phenyl]-2-(1H-tetrazol-5-yl)benzenesulfonamide], the IC50 in assay [1] (IMP-1 enzyme, CCF2-FA substrate) worked out at 14.4 nM; in assay [5] (VIM-1 enzyme, CCF2-FA substrate), 276 nM; in assay [6] (NDM-1 enzyme, CCF2-FA substrate), 4.37 nM. Besides, the “Serratia marcescens MITC95” value in assay [2] (Serratia marcescens CL5741 (IMP-1)) turned out to be 0.5859 µM. In assay [3] ((CLB30016, NDM-1)), the “Escherichia coli MITC95” value turned out to be 0.3906 µM. Further, the “Klebsiella pneumoniae MITC95” value in assay [4] (Klebsiella pneumoniae IHMA599644 (VIM-1)) was determined as 75 µM.
Regarding `NS(=O)(=O)c1cccc(-c2cccc(S(N)(=O)=O)c2-c2nnn[nH]2)c1` [Example 118, 2-(1H-tetrazol-5-yl)-[1,1′-biphenyl]-3,3′-disulfonamide], the figures for the IC50 in assay [1] (setting [13]), in assay [5] (setting [13]) and in assay [6] (setting [13]) were 1330 nM, 492 nM and 44.2 nM, respectively. Further, the “Serratia marcescens expressing IMP-1 (CL5741) MITC95” value in assay [2] (setting [14]) amounted to 18.75 µM. Also, the “Escherichia coli expressing NDM-1 (CLB 30016) MITC95” value in assay [3] (setting [14]) was 0.7813 µM. In addition, the “Klebsiella pneumoniae expressing VIM-1 (IHMA 599644) MITC95” value in assay [4] (setting [14]) is 50 µM.
Regarding `NS(=O)(=O)c1cccc(-c2ccc(CN[C@H]3COC[C@@H]3O)cc2)c1-c1nnn[nH]1` [Example 365, 4′-({[(3S,4R)-4-hydroxytetrahydrofuran-3-yl]amino}methyl)-2-(1H-tetrazol-5-yl)biphenyl-3-sulfonamide], the IC50 in assay [1] (setting [7]) is 52.1 nM; in assay [5] (setting [11]), 390 nM; in assay [6] (setting [12]), 5.37 nM. Also, the “Serratia marcescens MITC95” value in assay [2] (setting [8]) turned out to be 2.344 µM. Besides, the “Escherichia coli MITC95” value in assay [3] (setting [9]) is 1.563 µM. Besides, the “Klebsiella pneumoniae MITC95” value in assay [4] (setting [10]) is 75 µM.
As to `Nc1nc2cccc(-c3cccc(S(N)(=O)=O)c3-c3nn[nH]n3)c2[nH]1` [Example 428, 3-(2-amino-1H-benzo[d]imidazol-7-yl)-2-(2H-tetrazol-5-yl)benzenesulfonamide], the results for the IC50 in assay [1] (setting [7]), in assay [5] (setting [11]) and in assay [6] (setting [12]) were 345 nM, 17.3 nM and 0.683 nM, respectively. In addition, the “Serratia marcescens MITC95” value in assay [2] (setting [8]) is 6.25 µM. In assay [3] (setting [9]), the “Escherichia coli MITC95” value turned out to be 0.0625 µM. Also, the “Klebsiella pneumoniae MITC95” value in assay [4] (setting [10]) was found to be 1.531 µM.

The record behind these values is patent US9708336B2, “Metallo-beta-lactamase inhibitors” (priority 2014, dated 2017).
